Experimental data published in US9248103B2, “Method for improving water solubility of slightly soluble substance” (Kabushiki Kaisha Sangi, priority 2012, dated 2016).
Each block holds one compound with its values, some of them ahead of it.

How the values were obtained:
Type in all cases: physicochemical
[1] = Dissolution test of poorly-soluble substances, distilled water
Protocol: (§1) From initiation of the test, the mixed solution was stirred with a stirrer having a length of 15 mm. The rotation number of the stirrer was 120 rpm, and all of the tests were conducted in a thermostat at 37±0.5° C. Two types of test solutions, namely, distilled water and 2nd fluid for disintegration test (pH 6.8) of the Japanese Pharmacopoeia were used. As such 2nd fluid for disintegration test of the Japanese Pharmacopoeia, a solution prepared by diluting the 10-fold concentration solution of Kanto Kagaku Co., Ltd. with distilled water was used.
(§2) A comparative test was carried out in the same manner as that described above, with the exception that, instead of a substance with improved aqueous solubility coated with hydroxyapatite microparticles and with a pH adjuster and/or a surfactant, a poorly-soluble substance or the like was used in the same amount as the substance with improved aqueous solubility.
(§3) […] The thus sampled solution was centrifuged at 12,000 rpm for 5 minutes. Thereafter, the substance with improved aqueous solubility and hydroxyapatite microparticles, which had not been dissolved in the solution, were removed. In the case of the comparative test, the poorly-soluble substance or the like, which had not been dissolved in the solution, was removed. An aliquot of this supernatant was immediately frozen. The frozen sample was freeze-dried, and it was then used as a sample in the measurement of the amount of the substance with improved aqueous solubility, which had been dissolved in the test solution. The dissolved poorly-soluble substance was measured mainly using a dual wavelength absorption photometer.

[2] = Dissolution test of poorly-soluble substances, 2nd fluid for disintegration test (pH 6.8) of the Japanese Pharmacopoeia
Protocol: as §1, §2, §3

[3] = pH of aqueous solution after 60 minutes in dissolution test using distilled water
Protocol: Moreover, as described above, since the pH of a local portion that is contacted with a poorly-soluble substance is more important than the pH of a solution as a whole, when an acidic substance is dissolved, desired effects can be obtained even though the pH is not extremely high. It is sufficient if a pH adjuster is used such that the pH of an aqueous solution of a substance with improved aqueous solubility becomes pH 8 or less. […] Herein, the pH of an aqueous solution indicates a pH value that is measured 60 minutes after the addition of a target substance to 50 mL of distilled water in an amount 2 times larger than the substance dissolved in 360 minutes. More specifically, the pH of an aqueous solution indicates a pH value that is measured according to [Dissolution test of poorly-soluble substances] in the below-mentioned Examples.
as §1
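Also: Comparative example rows not the inventive coated formulation.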

Dissolved amount, elution time 1 min [1]: 1162.9 µg/mL
Dissolved amount, elution time 3 min [1]: 1502.6 µg/mL
Dissolved amount, elution time 10 min [1]: 1416.8 µg/mL
Dissolved amount, elution time 180 min [1]: 1509.8 µg/mL
Dissolved amount, elution time 360 min [1]: 1497.4 µg/mL
Dissolved amount, elution time 3 min [2]: 2286.6 µg/mL
Dissolved amount, elution time 10 min [2]: 2541.7 µg/mL
Dissolved amount, elution time 30 min [2]: 2600.9 µg/mL
Dissolved amount, elution time 60 min [2]: 2667.9 µg/mL
Dissolved amount, elution time 180 min [2]: 2509.7 µg/mL
Dissolved amount, elution time 360 min [2]: 2410.4 µg/mL
pH at 60 minutes after dissolution ([3]; Famotidine): 8.4
SMILES: NC(N)=Nc1nc(CSCCC(N)=NS(N)(=O)=O)cs1 [3-4, Famotidine]

pH at 60 minutes after dissolution ([3]; Sulpiride): 9.3
SMILES: CCN1CCCC1CNC(=O)c1cc(S(N)(=O)=O)ccc1OC (centres unmarked) [6-4, Sulpiride]

Dissolved amount, elution time 1 min [1]: 48.8 µg/mL
Dissolved amount, elution time 3 min [1]: 49.3 µg/mL
Dissolved amount, elution time 10 min [1]: 51.3 µg/mL
Dissolved amount, elution time 30 min [1]: 56.6 µg/mL
Dissolved amount, elution time 60 min [1]: 50.5 µg/mL
Dissolved amount, elution time 180 min [1]: 52.9 µg/mL
Dissolved amount, elution time 360 min [1]: 68.6 µg/mL
Dissolved amount, elution time 1 min [2]: 637.3 µg/mL
Dissolved amount, elution time 3 min [2]: 1597.2 µg/mL
Dissolved amount, elution time 10 min [2]: 2041.9 µg/mL
Dissolved amount, elution time 30 min [2]: 2141.1 µg/mL
Dissolved amount, elution time 60 min [2]: 2449.4 µg/mL
Dissolved amount, elution time 180 min [2]: 2432.9 µg/mL
Dissolved amount, elution time 360 min [2]: 2429.1 µg/mL
pH at 60 minutes after dissolution ([3]; Tolbutamide): 4.3
SMILES: CCCCNC(=O)NS(=O)(=O)c1ccc(C)cc1 [1-5, Tolbutamide]

Second part, the compound before the results:

SMILES: CC[C@H]1OC(=O)[C@H](C)[C@@H](O[C@H]2C[C@@](C)(OC)[C@@H](O)[C@H](C)O2)[C@H](C)[C@@H](O[C@@H]2O[C@H](C)C[C@H](N(C)C)[C@H]2O)[C@](C)(O)C[C@@H](C)C(=O)[C@H](C)[C@@H](O)[C@]1(C)O [9-1, Erythromycin]
Dissolved amount, elution time 3 min ([1]; Erythromycin): 635.0 µg/mL
Dissolved amount, elution time 10 min ([1]; Erythromycin): 861.6 µg/mL
Dissolved amount, elution time 30 min ([1]; Erythromycin): 944.7 µg/mL
Dissolved amount, elution time 120 min ([1]; Erythromycin): 927.7 µg/mL
Dissolved amount, elution time 360 min ([1]; Erythromycin): 846.1 µg/mL
Dissolved amount, elution time 3 min ([2]; Erythromycin): 2556.3 µg/mL
Dissolved amount, elution time 10 min ([2]; Erythromycin): 4984.2 µg/mL
Dissolved amount, elution time 30 min ([2]; Erythromycin): 5103.6 µg/mL
Dissolved amount, elution time 120 min ([2]; Erythromycin): 5904.1 µg/mL
Dissolved amount, elution time 360 min ([2]; Erythromycin): 6044.7 µg/mL
pH at 60 minutes after dissolution ([3]; Erythromycin): 9.6

SMILES: CC(C)(Sc1cc(C(C)(C)C)c(O)c(C(C)(C)C)c1)Sc1cc(C(C)(C)C)c(O)c(C(C)(C)C)c1 [5-2, Probucol]
Dissolved amount, elution time 1 min ([1]; Probucol): 0.7 µg/mL
Dissolved amount, elution time 3 min ([1]; Probucol): 2.7 µg/mL
Dissolved amount, elution time 10 min ([1]; Probucol): 3.7 µg/mL
Dissolved amount, elution time 30 min ([1]; Probucol): 6.1 µg/mL
Dissolved amount, elution time 60 min ([1]; Probucol): 7.6 µg/mL
Dissolved amount, elution time 180 min ([1]; Probucol): 8.3 µg/mL
Dissolved amount, elution time 360 min ([1]; Probucol): 9.7 µg/mL
Dissolved amount, elution time 1 min ([2]; Probucol): 4.7 µg/mL
Dissolved amount, elution time 3 min ([2]; Probucol): 14.9 µg/mL
Dissolved amount, elution time 10 min ([2]; Probucol): 19.9 µg/mL
Dissolved amount, elution time 30 min ([2]; Probucol): 21.2 µg/mL
Dissolved amount, elution time 60 min ([2]; Probucol): 21.8 µg/mL
Dissolved amount, elution time 180 min ([2]; Probucol): 26.8 µg/mL
Dissolved amount, elution time 360 min ([2]; Probucol): 28.0 µg/mL

SMILES: COc1cc(Cc2cnc(N)nc2N)cc(OC)c1OC [4-3, Trimethoprim]
Dissolved amount, elution time 1 min [1]: 354.6 µg/mL
Dissolved amount, elution time 3 min [1]: 531.0 µg/mL
Dissolved amount, elution time 10 min [1]: 685.0 µg/mL
Dissolved amount, elution time 30 min [1]: 677.9 µg/mL
Dissolved amount, elution time 60 min [1]: 671.8 µg/mL
Dissolved amount, elution time 180 min [1]: 672.0 µg/mL
Dissolved amount, elution time 360 min [1]: 656.3 µg/mL
Dissolved amount, elution time 1 min [2]: 807.8 µg/mL
Dissolved amount, elution time 3 min [2]: 1160.4 µg/mL
Dissolved amount, elution time 10 min [2]: 1291.7 µg/mL
Dissolved amount, elution time 30 min [2]: 1344.0 µg/mL
Dissolved amount, elution time 60 min [2]: 1324.8 µg/mL
Dissolved amount, elution time 180 min [2]: 1296.5 µg/mL
Dissolved amount, elution time 360 min [2]: 1321.9 µg/mL
pH at 60 minutes after dissolution ([3]; Trimethoprim): 8.4

SMILES: CC(=O)SC[C@@H](C)C(=O)N1CCC[C@H]1C(=O)N[C@@H](Cc1ccccc1)C(=O)O [8-1, Alacepril]
Dissolved amount, elution time 3 min ([1]; Alacepril): 526.2 µg/mL
Dissolved amount, elution time 10 min ([1]; Alacepril): 805.6 µg/mL
Dissolved amount, elution time 30 min ([1]; Alacepril): 931.2 µg/mL
Dissolved amount, elution time 120 min ([1]; Alacepril): 994.9 µg/mL
Dissolved amount, elution time 360 min ([1]; Alacepril): 996.5 µg/mL
Dissolved amount, elution time 3 min ([2]; Alacepril): 2311.1 µg/mL
Dissolved amount, elution time 10 min ([2]; Alacepril): 2514.7 µg/mL
Dissolved amount, elution time 30 min ([2]; Alacepril): 2525.0 µg/mL
Dissolved amount, elution time 120 min ([2]; Alacepril): 2588.4 µg/mL
pH at 60 minutes after dissolution ([3]; Alacepril): 2.9

SMILES: O=C(CCCN1CCC(O)(c2ccc(Cl)cc2)CC1)c1ccc(F)cc1 [10-1, Haloperidol]
Dissolved amount, elution time 3 min ([1]; Haloperidol): 8.2 µg/mL
Dissolved amount, elution time 10 min ([1]; Haloperidol): 10.0 µg/mL
Dissolved amount, elution time 30 min ([1]; Haloperidol): 11.3 µg/mL
Dissolved amount, elution time 120 min ([1]; Haloperidol): 12.8 µg/mL
Dissolved amount, elution time 360 min ([1]; Haloperidol): 13.1 µg/mL
Dissolved amount, elution time 3 min ([2]; Haloperidol): 23.9 µg/mL
Dissolved amount, elution time 10 min ([2]; Haloperidol): 35.6 µg/mL
Dissolved amount, elution time 30 min ([2]; Haloperidol): 45.2 µg/mL
Dissolved amount, elution time 120 min ([2]; Haloperidol): 50.1 µg/mL
Dissolved amount, elution time 360 min ([2]; Haloperidol): 48.9 µg/mL
pH at 60 minutes after dissolution ([3]; Haloperidol): 8.1
